# Test results: PubChem BioAssay AID1963832 (Molecular Pharmacology Branch, DTP, NCI, 2024)
# Tested on: 885724-159-R-J1-PDC complex spheroid viability
# Assay: Anticancer human tumor 885724-159-R-J1-PDC patient-derived pancreatic adenocarcinoma cell line growth inhibition [POLQ]
# Conditions: for IC50: curve of first compound; for viability, T/C: stronger effect = lower value
# Procedure, shortened: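 PDC + HUVEC + MSC complex spheroids; POLQ inhibitors ± partner drugs; top conc. at/near clinical Cmax, else 10 microM (SN-38 1 microM), half-log dilutions; 37 degrees C, 5% CO2.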
# [1] = second compound 0.0316 µM, first compound 0.0316 µM
# [2] = second compound 0.0316 µM, first compound 0.1 µM
# [3] = second compound 0.0316 µM, first compound 0.316 µM
# [4] = second compound 0.0316 µM, first compound 1 µM
# [5] = second compound 0.0316 µM, first compound 3.16 µM
# [6] = second compound 0.0316 µM, first compound 10 µM
# [7] = second compound 0.1 µM, first compound 0.0316 µM
# [8] = second compound 0.1 µM, first compound 0.1 µM
# [9] = second compound 0.1 µM, first compound 0.316 µM
# [10] = second compound 0.1 µM, first compound 1 µM
# [11] = second compound 0.1 µM, first compound 3.16 µM
# [12] = second compound 0.1 µM, first compound 10 µM
# [13] = second compound 0.316 µM, first compound 0.0316 µM
# [14] = second compound 0.316 µM, first compound 0.1 µM
# [15] = second compound 0.316 µM, first compound 0.316 µM
# [16] = second compound 0.316 µM, first compound 1 µM
# [17] = second compound 0.316 µM, first compound 3.16 µM
# [18] = second compound 0.316 µM, first compound 10 µM
# [19] = second compound 1 µM, first compound 0.0316 µM
# [20] = second compound 1 µM, first compound 0.1 µM
# [21] = second compound 1 µM, first compound 0.316 µM
# [22] = second compound 1 µM, first compound 1 µM
# [23] = second compound 1 µM, first compound 3.16 µM
# [24] = second compound 1 µM, first compound 10 µM
# [25] = second compound 3.16 µM, first compound 0.0316 µM
# [26] = second compound 3.16 µM, first compound 0.1 µM
# [27] = second compound 3.16 µM, first compound 0.316 µM
# [28] = second compound 3.16 µM, first compound 1 µM
# [29] = second compound 3.16 µM, first compound 3.16 µM
# [30] = second compound 3.16 µM, first compound 10 µM
# [31] = second compound 10 µM, first compound 0.0316 µM
# [32] = second compound 10 µM, first compound 0.1 µM
# [33] = second compound 10 µM, first compound 0.316 µM
# [34] = second compound 10 µM, first compound 1 µM
# [35] = second compound 10 µM, first compound 3.16 µM
# [36] = second compound 10 µM, first compound 10 µM
# 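Note: spheroids exposed to compounds for 7 days.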
smiles,measurement,setting,value
CCc1cc2c(N3CCc4c(cc(Cn5ccnc5)cc4-c4cn(C)nc4C(F)(F)F)C3=O)ccnc2c(OC)n1 + Cc1cccc(N(C)C(=O)C2C(O)CCN2c2nc(C)cc(C(F)(F)F)c2C#N)c1,IC50,second compound 0.0316 µM,> 10 µM
same,IC50,second compound 0.1 µM,> 10 µM
same,IC50,second compound 0.316 µM,> 10 µM
same,IC50,second compound 1 µM,> 10 µM
same,IC50,second compound 3.16 µM,> 10 µM
same,IC50,second compound 10 µM,> 10 µM
same,"viability, T/C",[1],94%
same,"viability, T/C",[2],82.9%
same,"viability, T/C",[3],81.8%
same,"viability, T/C",[4],89.2%
same,"viability, T/C",[5],74.3%
same,"viability, T/C",[6],78.4%
same,"viability, T/C",[7],104%
same,"viability, T/C",[8],81.7%
same,"viability, T/C",[9],88.6%
same,"viability, T/C",[10],83.6%
same,"viability, T/C",[11],84.7%
same,"viability, T/C",[12],63.8%
same,"viability, T/C",[13],96%
same,"viability, T/C",[14],89.9%
same,"viability, T/C",[15],84.4%
same,"viability, T/C",[16],89.1%
same,"viability, T/C",[17],82.5%
same,"viability, T/C",[18],59.5%
same,"viability, T/C",[19],83.8%
same,"viability, T/C",[20],84.7%
same,"viability, T/C",[21],92.4%
same,"viability, T/C",[22],79.7%
same,"viability, T/C",[23],85.5%
same,"viability, T/C",[24],62.8%
same,"viability, T/C",[25],94.2%
same,"viability, T/C",[26],85.5%
same,"viability, T/C",[27],86.6%
same,"viability, T/C",[28],89.7%
same,"viability, T/C",[29],79.4%
same,"viability, T/C",[30],72.6%
same,"viability, T/C",[31],92.8%
same,"viability, T/C",[32],83.7%
same,"viability, T/C",[33],86.4%
same,"viability, T/C",[34],87.8%
same,"viability, T/C",[35],72.7%
same,"viability, T/C",[36],63.5%
COc1ccc([C@@H](O)c2cc(-c3ncnc4cc(N5CCOCC5)ccc34)c(F)cc2Cl)nn1 + Cc1cccc(N(C)C(=O)C2C(O)CCN2c2nc(C)cc(C(F)(F)F)c2C#N)c1,IC50,second compound 0.0316 µM,4.63 µM
same,IC50,second compound 0.1 µM,4.02 µM
same,IC50,second compound 0.316 µM,4.68 µM
same,IC50,second compound 1 µM,3.96 µM
same,IC50,second compound 3.16 µM,4.44 µM
same,IC50,second compound 10 µM,4.6 µM
same,"viability, T/C",[1],112%
same,"viability, T/C",[2],90.2%
same,"viability, T/C",[3],88.6%
same,"viability, T/C",[4],70.1%
same,"viability, T/C",[5],60.5%
same,"viability, T/C",[6],35.6%
same,"viability, T/C",[7],93.7%
same,"viability, T/C",[8],91.6%
same,"viability, T/C",[9],81.5%
same,"viability, T/C",[10],64.7%
same,"viability, T/C",[11],56.7%
same,"viability, T/C",[12],35.2%
same,"viability, T/C",[13],104%
same,"viability, T/C",[14],84.8%
same,"viability, T/C",[15],81.1%
same,"viability, T/C",[16],81.9%
same,"viability, T/C",[17],57.2%
same,"viability, T/C",[18],33.7%
same,"viability, T/C",[19],103%
same,"viability, T/C",[20],93.2%
same,"viability, T/C",[21],89%
same,"viability, T/C",[22],68%
same,"viability, T/C",[23],55.3%
same,"viability, T/C",[24],34.5%
same,"viability, T/C",[25],100%
same,"viability, T/C",[26],92.5%
same,"viability, T/C",[27],85.1%
same,"viability, T/C",[28],78.6%
same,"viability, T/C",[29],55.2%
same,"viability, T/C",[30],33.4%
same,"viability, T/C",[31],101%
same,"viability, T/C",[32],90.3%
same,"viability, T/C",[33],85.1%
same,"viability, T/C",[34],77%
same,"viability, T/C",[35],55.9%
same,"viability, T/C",[36],34.9%
O=C(Nc1ccc(O)c(NS(=O)(=O)c2ccc(F)cc2)c1)c1ccc(-c2ccccc2)cc1 + Cc1cccc(N(C)C(=O)C2C(O)CCN2c2nc(C)cc(C(F)(F)F)c2C#N)c1,IC50,second compound 0.0316 µM,> 10 µM
same,IC50,second compound 0.1 µM,> 10 µM
same,IC50,second compound 0.316 µM,> 10 µM
same,IC50,second compound 1 µM,> 10 µM
same,IC50,second compound 3.16 µM,> 10 µM
same,IC50,second compound 10 µM,> 10 µM
same,"viability, T/C",[1],110%
same,"viability, T/C",[2],92.4%
same,"viability, T/C",[3],101%
same,"viability, T/C",[4],102%
same,"viability, T/C",[5],106%
same,"viability, T/C",[6],102%
same,"viability, T/C",[7],96.6%
same,"viability, T/C",[8],103%
same,"viability, T/C",[9],94.2%
same,"viability, T/C",[10],107%
same,"viability, T/C",[11],111%
same,"viability, T/C",[12],117%
same,"viability, T/C",[13],102%
same,"viability, T/C",[14],92.3%
same,"viability, T/C",[15],98.3%
same,"viability, T/C",[16],101%
same,"viability, T/C",[17],118%
same,"viability, T/C",[18],108%
same,"viability, T/C",[19],110%
same,"viability, T/C",[20],91.2%
same,"viability, T/C",[21],107%
same,"viability, T/C",[22],106%
same,"viability, T/C",[23],112%
same,"viability, T/C",[24],111%
same,"viability, T/C",[25],107%
same,"viability, T/C",[26],90.1%
same,"viability, T/C",[27],105%
same,"viability, T/C",[28],104%
same,"viability, T/C",[29],115%
same,"viability, T/C",[30],107%
same,"viability, T/C",[31],105%
same,"viability, T/C",[32],102%
same,"viability, T/C",[33],104%
same,"viability, T/C",[34],108%
same,"viability, T/C",[35],123%
same,"viability, T/C",[36],101%
COc1cccc2c1C(=O)c1c(O)c3c(c(O)c1C2=O)CC(O)(C(=O)CO)CC3OC1CC(N)C(O)C(C)O1 (stereo not drawn) + Nc1ccc(C#CCN(C(=O)Cc2ncc(C(F)(F)F)cc2C(F)(F)F)c2ccc(F)cc2)nn1,IC50,second compound 0.0316 µM,0.158 µM
same,IC50,second compound 0.1 µM,0.198 µM
same,IC50,second compound 0.316 µM,0.15 µM
same,IC50,second compound 1 µM,0.173 µM
same,IC50,second compound 3.16 µM,0.163 µM
same,IC50,second compound 10 µM,0.168 µM
same,"viability, T/C",[1],66.2%
same,"viability, T/C",[2],61%
same,"viability, T/C",[3],34%
same,"viability, T/C",[4],13.8%
same,"viability, T/C",[5],5.73%
same,"viability, T/C",[6],6.16%
same,"viability, T/C",[7],75.9%
same,"viability, T/C",[8],64.5%
same,"viability, T/C",[9],40.4%
same,"viability, T/C",[10],12.2%
same,"viability, T/C",[11],6.2%
same,"viability, T/C",[12],6.34%
same,"viability, T/C",[13],72.5%
same,"viability, T/C",[14],55.7%
same,"viability, T/C",[15],37.7%
same,"viability, T/C",[16],14.6%
same,"viability, T/C",[17],5.39%
same,"viability, T/C",[18],7.18%
same,"viability, T/C",[19],76.7%
same,"viability, T/C",[20],60.8%
same,"viability, T/C",[21],38.1%
same,"viability, T/C",[22],10.1%
same,"viability, T/C",[23],6.54%
same,"viability, T/C",[24],7.34%
same,"viability, T/C",[25],74.9%
same,"viability, T/C",[26],60.6%
same,"viability, T/C",[27],35.2%
same,"viability, T/C",[28],12.9%
same,"viability, T/C",[29],5.75%
same,"viability, T/C",[30],7.58%
same,"viability, T/C",[31],70.8%
same,"viability, T/C",[32],61.1%
same,"viability, T/C",[33],36.1%
same,"viability, T/C",[34],11.3%
same,"viability, T/C",[35],5.42%
same,"viability, T/C",[36],5.67%
